The values below are quoted from earlier work in US11439578B2, “Agent for dyeing hair, containing at least one organic silicon compound, a coloring compound and a film-forming, hydrophilic polymer” (Henkel AG & Co. KGaA, priority 2018, dated 2022).

For the data set the following is noted: about 25° C.

In the case of `O=C([O-])C1=NN(c2ccc(S(=O)(=O)[O-])cc2)C(=O)C1N=Nc1ccc(S(=O)(=O)[O-])cc1.[Na+].[Na+].[Na+]` (centres unmarked) [Acid Yellow 23, trisodium salt of 4,5-dihydro-5-oxo-1-(4-sulfophenyl)-4-((4-sulfophenyl)azo)-1H-pyrazole-3-carboxylic acid], the “solubility in water (in words)” value is “highly soluble in water”. As for `CCN(Cc1cccc(S(=O)(=O)[O-])c1)c1ccc(C(=C2C=CC(=[N+](CC)Cc3cccc(S(=O)(=O)[O-])c3)C=C2)c2ccccc2S(=O)(=O)[O-])cc1.[Na+].[Na+]` [Acid Blue 9], the solubility in water entry is on record as “more than 20 % by weight”. `O=S(=O)([O-])c1ccc(N=Nc2c(O)ccc3ccccc23)cc1.[Na+]` [Acid Orange 7, sodium salt of 4-[(2-hydroxy-1-naphthyl)azo]benzene sulphonate]: the solubility in water result is given as “more than 7 g/L”. Regarding `O=C([O-])c1c(Cl)c(Cl)c(Cl)c(Cl)c1-c1c2c(Br)cc(=O)c(Br)c-2oc2c(Br)c(O)cc(Br)c12.O=C([O-])c1c(Cl)c(Cl)c(Cl)c(Cl)c1-c1c2c(Br)cc(=O)c(Br)c-2oc2c(Br)c(O)cc(Br)c12.[Na+].[Na+]` [Acid Red 92, disodium salt of 3,4,5,6-tetrachloro-2-(1,4,5,8-tetrabromo-6-hydroxy-3-oxoxanthen-9-yl)benzoic acid], the solubility in water entry is on record as “greater than 10 g/L”. `Nc1cc(S(=O)(=O)[O-])cc2cc(S(=O)(=O)[O-])c(N=Nc3ccccc3)c(O)c12.[Na+].[Na+]` [Acid Red 33, disodium salt of 5-amino-4-hydroxy-3-(phenylazo)-naphthalene-2,7-disulphonate]: the solubility in water entry was “about 2.5 g/L”.
